The source of these data is ChEMBL document CHEMBL2434873, “Synthesis of VS-105: A novel and potent vitamin D receptor agonist with reduced hypercalcemic effects” (Bioorg Med Chem Lett, 2013).

Data set [1] concerns the target T1, Vitamin D3 receptor (Homo sapiens, UniProt P11473).
T1 sequence (P11473 whole entry): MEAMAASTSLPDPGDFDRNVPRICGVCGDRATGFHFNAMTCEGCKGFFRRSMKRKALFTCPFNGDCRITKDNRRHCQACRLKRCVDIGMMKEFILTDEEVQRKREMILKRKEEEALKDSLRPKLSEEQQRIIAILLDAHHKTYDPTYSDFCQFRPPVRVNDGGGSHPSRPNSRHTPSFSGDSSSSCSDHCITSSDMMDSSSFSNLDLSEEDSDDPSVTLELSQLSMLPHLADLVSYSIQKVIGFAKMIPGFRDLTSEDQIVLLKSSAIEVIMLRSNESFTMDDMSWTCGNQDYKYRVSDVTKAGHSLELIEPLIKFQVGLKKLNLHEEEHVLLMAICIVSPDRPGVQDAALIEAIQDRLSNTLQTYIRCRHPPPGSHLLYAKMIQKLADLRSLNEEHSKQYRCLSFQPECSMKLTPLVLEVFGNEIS
Description: Binding affinity to VDR (unknown origin).

In the next data set the test system is HL-60. Kind of data set: Induction of human HL60 cell differentiation after 4 days by NBT reduction assay. Type of data set: functional, cell-based. To be noted: HL-60, 96 h.
The nature of data set [2]: Therapeutic index, ratio for induction of hypercalcemia over suppression of serum PTH level in 5/6 nephrectomized uremic Sprague-Dawley rat. Format: organism-based. To be noted: read-out: TI.
Data set [3] has as its system Rattus norvegicus. Kind of data set: Toxicity in 5/6 nephrectomized uremic Sprague-Dawley rat assessed as dose require to cause hypercalcemia administered 3 times per week for 12 days measured 24 hrs post last dose. Format: organism-based. Particulars: in vivo.
Data set [4] concerns the target T1, Vitamin D3 receptor. Kind of data set: Agonist activity at VDR ligand binding domain (unknown origin) by reporter gene assay. On the technique in general: A reporter such as luciferase makes a cellular process visible.
The subject of data set [5] is Rattus norvegicus. Kind of data set: Agonist activity at VDR in 5/6 nephrectomized uremic Sprague-Dawley rat assessed as dose require to suppress serum PTH level administered 3 times per week for 12 days measured 24 hrs post last dose by ELISA. Format: functional.

Each structure is given as a SMILES string. pEC50, pIC50: −log10 of the molar value.

By pIC50 is commonly meant −log10 of the IC50, conventionally taken in molar units. Read a high pIC50 as a small IC50. The pEC50 is −log10 of the EC50, conventionally taken in molar units. A low value points to a high EC50. The molecule `C=C1[C@H](O)CC(=C/C=C2\CCC[C@]3(C)[C@@H]([C@@H](C)OC[C@H](C)C(C)(C)O)CC[C@@H]23)C[C@H]1O` showed a pIC50 on Vitamin D3 receptor [1] of 7.42. Moreover, the negative logarithm of the EC50 (pEC50) is 7.93 in the data set with HL-60 and above 10.00 on Vitamin D3 receptor [4]. The selectivity ratio in data set [2] is above 50. For the same molecule, the Activity with Rattus norvegicus [3] is above 0.6 µg/kg; in the data set with Rattus norvegicus [5], 0.004 µg/kg.
In the data set with HL-60, `C[C@H](/C=C/[C@H](C)C(C)(C)O)[C@H]1CC[C@H]2/C(=C/C=C3C[C@@H](O)C[C@H](O)C3)CCC[C@]12C` [PARICALCITOL] gave a pEC50 of 7.90. Also, in data set [2], the selectivity ratio was 4. The Activity in the data set on Rattus norvegicus [3] is above 0.08 µg/kg; in the data set on Rattus norvegicus [5] it was 0.02 µg/kg.
